Laboratory results taken from patent publication US20120329761A1, “USE OF TIGECYCLINE FOR TREATMENT OF CANCER” (UNIVERSITY HEALTH NETWORK, priority 2010, published 2012).

Legend:
[1] = test system: Cox-1, Cox-2, Cox-4, grp78, XIAP; experiment: Immunoblotting of mitochondrially and cytosolically translated proteins; format: cell-based, human; conditions: TEX, OCI-AML2 and two AML patients' cells, 2.5 μM and 5 μM
Method: FIG. 4. […] (A) Cells from TEX, OCI-AML2 and two primary AML patients were treated with increasing concentrations (2.5 μM and 5 μM) of tigecycline for 36 and 48 hours of tigecycline. Total proteins were extracted and analyzed by western blotting for Cox-1, Cox-2, Cox-4, grp78, XIAP, actin and tubulin. (B) TEX and AML patient cells were treated with increasing concentrations (2.5 μM and 5 μM) of tigecycline. Cox-1, Cox-2, and Cox-4 mRNA expression relative 18S was determined by quantitative RT-PCR. Data is shown as mean±SD. (C) TEX cells were treated with increasing concentrations of tigecycline and chloramphenicol (CAP) for 72 hours. Complex I, II and IV enzyme activity relative to citrate synthase activity was determined as described in materials and methods. (D) Cells from TEX, primary AML patients, and normal donors were treated with increasing concentrations of tigecycline. Mitochondrial membrane potential (Δψ) was determined by staining cells with JC-1 dye, and flow cytometry analysis (Red/Green ratio). Reactive oxygen species generation (ROS) was determined by staining with h2-DCFDA and Dihydroethidium (DHE).
Total cell lysates were prepared from cells as described previously^32. […] Protein concentrations were measured by the DC Protein assay. […]

[2] = test system: OCI-AML2 human leukemia cells; format: in vivo, SCID mice
Method: FIG. 3. Tigecycline has anti-leukemia activity in vivo. (A, B) Human leukemia (OCI-AML2) were injected subcutaneously into the flank of SCID mice. Seven days after injection, once tumors were palpable, mice were treated with tigecycline (50 mg/kg or 100 mg/kg twice daily by i.p. injection) or vehicle control (n=10 per group). Fourteen days after injection of cells, mice were sacrificed, tumors excised and the volume and mass of the tumors were measured. The tumor mass and the mean volume+SD are shown. Differences in tumor volume and mass were analyzed by an unpaired t-test: * p<0.001. (C) Tumours from two control mice, and three tigecycline-treated mice were excised after 5 days of treatment and total proteins were extracted and analyzed by western blotting for Cox-1, Cox-2, Cox-4, and tubulin. (D) Primary cells from three AML patients were injected intra-femorally into the right femur of female sub-lethally irradiated NOD/SCID mice. Three weeks after injection mice were treated with tigecycline (100 mg/kg by i.p. injection daily) or vehicle control (n=10 per group) for three weeks. Following treatment, human leukemia cell engraftment in the injected right femur was measured by FACS analysis for human CD45^+CD19^−CD33^+ cells. Data represent mean±SD of engrafted human cells. Cells from one patient experiment were used to assess secondary engraftment in a second generation of NOD/SCID mice. Equal numbers of viable leukemia cells from bone marrow of control and tigecycline treated mice were injected into irradiated NOD/SCID mice, which were not treated with tigecycline. Six weeks later, human leukemia cell engraftment in the injected right femur was measured by FACS analysis for human CD45^+CD19^−CD33^+ cells. (* p<0.005, Student's t-test).
OCI-AML2 human leukemia cells (1×10^6) were injected subcutaneously into the flanks of SCID mice (Ontario Cancer Institute, Toronto, ON). Seven days after injection, once tumours were palpable, mice were treated with tigecycline twice daily (50 mg/kg or 100 mg/kg by i.p. injection) or vehicle control (n=10 per group) for 14 days. Tumor volume (tumor length×width^2×0.5236) was measured three times a week using calipers. Twenty-one days after injection of cells, mice were sacrificed, tumors excised and the volume and mass of the tumors were measured.
Given the effects of tigecycline as a potential anti-leukemia agent, tigecycline in mouse models of leukemia was evaluated. To evaluate the anti-tumor efficacy of tigecycline in vivo, human OCI-AML2 leukemia cells were injected into the flank of SCID mice. […] Tumor volume and mass were measured over time (FIGS. 3A, B). […]

[3] = rat, in vivo, 30 mg/kg/day; cited from earlier work
[4] = 50 mg/kg or 100 mg/kg twice daily i.p. for 14 days, p<0.001

Compound: CN(C)c1cc(NC(=O)CNC(C)(C)C)c(O)c2c1C[C@H]1C[C@H]3[C@H](N(C)C)C(O)=C(C(N)=O)C(=O)[C@@]3(O)C(O)=C1C2=O [tigecycline]
- expression of nuclear-encoded proteins XIAP or grp78 [1]: did not alter
- expression of Cox subunit proteins ([1]; 36 and 48 hours): preferential decrease of mitochondrially-translated subunits I and II, over nuclear-translated subunit IV
- expression of cytochrome C oxidase subunits in tumours ([2]; 50 mg/kg bid for 5 days, western blotting): preferential decreased expression of mitochondrially translated subunits Cox-1 and Cox-2
- decrease in tumor mass vs vehicle control [2, 4]: up to 70%
- decrease in tumor volume vs vehicle control [2, 4]: up to 70%
- toxicity in xenograft mice ([2]; mouse, in vivo): No evidence of toxicity
- toxicology findings [3]: reversible anemia, thrombocytopenia, and leucopenia with a hypocellular bone marrow
